In patent publication US20240246964A1 (Arbutus Biopharma Corporation, priority 2021, published 2024) one finds IC50 and EC50 data, which are given here for 20 compounds.

Assay [1] concerns the target PD-L1 His protein / PD-1 Fc protein (Homo sapiens (Human), UniProt Q9NZQ7). Briefly: HTRF Assay (PD-1/PD-L1 interaction). It counts as binding. Particulars: PD-L1 His 6 nM, PD-1 Fc 6 nM.
A further assay concerns the target human PD-L1 (Homo sapiens (Human), UniProt Q9NZQ7). Briefly: T cell activation luciferase reporter cell culture system (T Cell Activation Assay). It counts as cell-based. Particulars: luciferase reporter assay; PD-L1 aAPC/CHO-K1 cells with PD-1 effector Jurkat T cells.

Chain of human PD-L1 (Q9NZQ7 19-290): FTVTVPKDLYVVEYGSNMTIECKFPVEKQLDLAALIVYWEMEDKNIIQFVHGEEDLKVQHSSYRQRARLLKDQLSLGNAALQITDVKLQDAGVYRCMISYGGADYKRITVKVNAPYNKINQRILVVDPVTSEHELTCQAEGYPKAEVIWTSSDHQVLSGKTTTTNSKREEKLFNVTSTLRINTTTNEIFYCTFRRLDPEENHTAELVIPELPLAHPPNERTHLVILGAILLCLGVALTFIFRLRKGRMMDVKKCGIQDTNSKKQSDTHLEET
Chain of PD-L1 His protein / PD-1 Fc protein (Q9NZQ7 19-238): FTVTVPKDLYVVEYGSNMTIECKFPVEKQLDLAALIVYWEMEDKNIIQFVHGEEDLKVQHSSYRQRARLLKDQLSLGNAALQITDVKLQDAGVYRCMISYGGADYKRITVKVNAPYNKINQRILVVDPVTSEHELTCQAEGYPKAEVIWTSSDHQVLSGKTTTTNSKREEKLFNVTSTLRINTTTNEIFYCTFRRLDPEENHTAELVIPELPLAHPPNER

One may read the IC50 as the concentration that gives 50% inhibition. The low end stands for higher potency, the high end for lower potency. As a reminder, the EC50 is the concentration at which the effect is half-maximal. On to `COc1cc(-c2nccc(-c3cccc4c3CC[C@@H]4Oc3nc(OC)c(CNC[C@@H]4CCC(=O)N4)cc3C(F)(F)F)c2Cl)ccc1CNC[C@@H]1CCC(=O)N1` [Example 269, (S)-5-((((6-(((S)-4-(3-chloro-2-(3-methoxy-4-(((((S)-5-oxopyrrolidin-2-yl)methyl)amino)methyl)phenyl)pyridin-4-yl)-2,3-dihydro-1H-inden-1-yl)oxy)-2-methoxy-5-(trifluoromethyl)pyridin-3-yl)methyl)amino)methyl)pyrrolidin-2-one], for which, in assay [1], the IC50 is 12.5 nM. Further, the EC50 on human PD-L1 is 5.54 nM.

For `CN1CCNCc2ccc(-c3nccc(-c4cccc(-c5ccc6c(CNC[C@@H]7CCC(=O)N7)cn(C)c6n5)c4Cl)c3Cl)cc21` [Compound 9, (S)-5-((((6-(2-chloro-3-(3-chloro-2-(1-methyl-2,3,4,5-tetrahydro-1H-benzo[e][1,4]diazepin-8-yl)pyridin-4-yl)phenyl)-1-methyl-1H-pyrrolo[2,3-b]pyridin-3-yl)methyl)amino)methyl)pyrrolidin-2-one], the IC50 in assay [1] was determined as 15.5 nM. The EC50 at human PD-L1 was 212 nM.

In assay [1], `CNCc1ccc(-c2cccc(-c3ccnc(-c4ccc(CNC5CCN(C(C)=O)CC5)c(OC)c4)c3Cl)c2Cl)nc1OC` [Compound 212, 1-(4-((4-(3-chloro-4-(2-chloro-3-(6-methoxy-5-((methylamino)methyl)pyridin-2-yl)phenyl)pyridin-2-yl)-2-methoxybenzyl)amino)piperidin-1-yl)ethan-1-one] displayed an IC50 of 2.72 nM. In addition, at human PD-L1, the concentration for a half-maximal effect (EC50) stood at 20.6 nM.

On to `CNCc1ccc(-c2ccnc(-c3cccc4c3CC[C@@H]4Nc3nc(OC)c(CNC)cc3C(F)(F)F)c2Cl)nc1OC` [Compound 224, (S)-N-(4-(3′-chloro-6-methoxy-5-((methylamino)methyl)-[2,4′-bipyridin]-2′-yl)-2,3-dihydro-1H-inden-1-yl)-6-methoxy-5-((methylamino)methyl)-3-(trifluoromethyl)pyridin-2-amine], for which the IC50 in assay [1] was 8.22 nM. The compound further had a concentration giving a half-maximal response (EC50) at human PD-L1 not below 10000 nM.

Take `COc1cc(-c2nccc(-c3cccc(-c4ccc(CN5CC6(CNC(=O)C6)C5)c(OC)n4)c3Cl)c2Cl)cnc1CN1CC2(CNC(=O)C2)C1` [Compound 376, 2-((3-Chloro-4-(2-chloro-3-(6-methoxy-5-((7-oxo-2,6-diazaspiro[3.4]octan-2-yl)methyl)pyridin-2-yl)phenyl)-5′-methoxy-[2,3′-bipyridin]-6′-yl)methyl)-2,6-diazaspiro[3.4]octan-7-one]: in assay [1], 0.458 nM corresponded to half-maximal inhibition (IC50). The compound further gave an EC50 on human PD-L1 of 38.4 nM.

In assay [1], `COc1cc(-c2nccc(-c3cccc(-c4ccc(CNCCCNC(C)=O)c(OC)n4)c3Cl)c2Cl)ccc1CNCCCNC(C)=O` [Example 358, N-(3-(((6-(3-(2-(4-(((3-Acetamidopropyl)amino)methyl)-3-methoxyphenyl)-3-chloropyridin-4-yl)-2-chlorophenyl)-2-methoxypyridin-3-yl)methyl)amino)propyl) acetamide] registered a 50% inhibitory concentration (IC50) of 0.12 nM. This compound gave a half-maximal effective concentration (EC50) on human PD-L1 of 64.4 nM.

In assay [1], `CNCc1ccc(-c2cccc(-c3ccnc(-c4ccc(CN5CC6(CC(C(=O)O)C6)C5)c(OC)c4)c3Cl)c2Cl)nc1OC` [Compound 227, 2-(4-(3-chloro-4-(2-chloro-3-(6-methoxy-5-((methylamino)methyl)pyridin-2-yl)phenyl)pyridin-2-yl)-2-methoxybenzyl)-2-azaspiro[3.3]heptane-6-carboxylic acid] gave a 50% inhibitory concentration (IC50) of 5.25 nM. At human PD-L1, this compound displayed a concentration giving a half-maximal response (EC50) of 31.3 nM.

`COCCC(=O)N1CCC(NCc2ccc(-c3nccc(-c4cccc(-c5ccc(CNC6CCN(C(=O)CCOC)CC6)c(OC)n5)c4Cl)c3Cl)cc2OC)CC1` [Example 546, 1-(4-(((6-(2-Chloro-3-(3-chloro-2-(3-methoxy-4-(((1-(3-methoxypropanoyl)piperidin-4-yl)amino)methyl)phenyl)pyridin-4-yl)phenyl)-2-methoxypyridin-3-yl)methyl)amino)piperidin-1-yl)-3-methoxypropan-1-one] came in with an IC50 in assay [1] of 1.25 nM. The concentration for a half-maximal effect (EC50) at human PD-L1 was 19.5 nM.

`COc1cc(-c2nccc(-c3cccc(-c4ccc(CNC[C@@H]5CCC(=O)N5)c(OC)n4)c3Cl)c2Cl)cnc1CNC[C@@H]1CCC(=O)N1` [Compound 23, (S)-5-((((6-(2-chloro-3-(3-chloro-5′-methoxy-6′-(((((S)-5-oxopyrrolidin-2-yl)methyl)amino)methyl)-[2,3′-bipyridin]-4-yl)phenyl)-2-methoxypyridin-3-yl)methyl)amino)methyl)pyrrolidin-2-one] came in with an IC50 in assay [1] of 0.1 nM. Further, a half-maximal response at human PD-L1 (EC50) required 36.3 nM.

Compound `COc1cc(-c2nccc(-c3cccc(-c4ccc(C5=NCCN5)c(OC)n4)c3Cl)c2Cl)ccc1CNC[C@@H](O)CC(=O)OC(C)C` [Compound 209, isopropyl (S)-4-((4-(3-chloro-4-(2-chloro-3-(5-(4,5-dihydro-1H-imidazol-2-yl)-6-methoxypyridin-2-yl)phenyl)pyridin-2-yl)-2-methoxybenzyl)amino)-3-hydroxybutanoate] returned a half-inhibitory concentration (IC50) in assay [1] of 22.8 nM. The concentration for a half-maximal effect (EC50) on human PD-L1 is not below 10000 nM.

In assay [1], `COc1cc(CNC[C@H](C)O)cc(-c2nccc(-c3cccc(-c4ccc(CNC[C@H](C)O)c(OC)n4)c3Cl)c2Cl)c1` [Compound 157, (S)-1-(((6-(2-chloro-3-(3-chloro-2-(3-((((S)-2-hydroxypropyl)amino)methyl)-5-methoxyphenyl)pyridin-4-yl)phenyl)-2-methoxypyridin-3-yl)methyl)amino)propan-2-ol] showed a concentration for half-maximal inhibition (IC50) of 2.45 nM. Also, the EC50 on human PD-L1 was not below 10000 nM.

Compound `COc1nc(-c2cccc(-c3ccnc(-c4cc(Cl)c5c(c4)CCN(CC4COC4)C5)c3Cl)c2Cl)ccc1CNC[C@@H]1CCC(=O)N1` [Example 307, (S)-5-((((6-(2-Chloro-3-(3-chloro-2-(8-chloro-2-(oxetan-3-ylmethyl)-1,2,3,4-tetrahydroisoquinolin-6-yl)pyridin-4-yl)phenyl)-2-methoxypyridin-3-yl)methyl)amino)methyl)pyrrolidin-2-one] showed an IC50 in assay [1] of 1.41 nM. At human PD-L1, this compound registered an EC50 of 186 nM.

In assay [1], `Cc1c(NC(=O)c2ccc(CNC[C@@H]3CCC(=O)N3)cn2)cccc1-c1ccnc(-c2ccc(CNC[C@@H]3CCC(=O)N3)c(OC(F)F)c2)c1Cl` [Example 725, N-(3-(3-Chloro-2-(3-(difluoromethoxy)-4-(((((S)-5-oxopyrrolidin-2-yl)methyl)amino)methyl)phenyl)pyridin-4-yl)-2-methylphenyl)-5-(((((S)-5-oxopyrrolidin-2-yl)methyl)amino)methyl)picolinamide] had an IC50 of 0.53 nM. Also, the concentration for a half-maximal effect (EC50) at human PD-L1 was determined as 120 nM.

Consider `COc1cc(-c2nccc(-c3cccc(-c4ccc(CN5CCC(NC(C)=O)CC5)c(OC)n4)c3Cl)c2Cl)ccc1CN1CC2(CNC(=O)C2)C1` [Example 355, N-(1-((6-(2-Chloro-3-(3-chloro-2-(3-methoxy-4-((7-oxo-2,6-diazaspiro[3.4]octan-2-yl)methyl)phenyl)pyridin-4-yl)phenyl)-2-methoxypyridin-3-yl)methyl)piperidin-4-yl)acetamide], for which, in assay [1], the IC50 came to 1.27 nM. Besides, the EC50 at human PD-L1 amounted to 28.7 nM.

The compound `COc1nc(-c2cccc(-c3ccnc(-c4ccc(CN5CC6(CNC(=O)C6)C5)c(OC(F)F)c4)c3Cl)c2Cl)ccc1CN1CC2(C1)CN(C(C)=O)C2` [Example 688, 2-(4-(4-(3-(5-((6-Acetyl-2,6-diazaspiro[3.3]heptan-2-yl)methyl)-6-methoxypyridin-2-yl)-2-chlorophenyl)-3-chloropyridin-2-yl)-2-(difluoromethoxy)benzyl)-2,6-diazaspiro[3.4]octan-7-one] gave an IC50 in assay [1] of 1.46 nM. This compound also returned a concentration for a half-maximal effect (EC50) on human PD-L1 of 17 nM.

In turn, `COc1nc(-c2cccc(-c3cncc(-c4ccc(CNC5CCN(C(C)=O)CC5)c(OC)n4)c3Cl)c2Cl)ccc1CNC1CCN(C(C)=O)CC1` [Compound 639, 1-(4-(((6-(3-(5-(((1-acetylpiperidin-4-yl)amino)methyl)-4′-chloro-6-methoxy-[2,3′-bipyridin]-5′-yl)-2-chlorophenyl)-2-methoxypyridin-3-yl)methyl)amino)piperidin-1-yl)ethan-1-one] came in with an IC50 in assay [1] of 0.19 nM. In addition, on human PD-L1, the EC50 was found to be 23 nM.

`COc1cc(-c2nccc(-c3ccnc(-c4cc(F)c(CNC[C@@H]5CCC(=O)N5)c(OC)c4)c3Cl)c2Cl)cc(F)c1CNC[C@@H]1CCC(=O)N1` [Compound 12, (5S,5′S)-5,5′-(((((3,3′-dichloro-[4,4′-bipyridine]-2,2′-diyl)bis(2-fluoro-6-methoxy-4,1-phenylene))bis(methylene))bis(azanediyl))bis(methylene))bis(pyrrolidin-2-one)] showed a concentration for half-maximal inhibition (IC50) in assay [1] of 0.1 nM. On human PD-L1, this compound displayed an EC50 of 67.1 nM.

On to `CNCc1ccc(-c2cccc(-c3ccnc(-c4ccc5c(c4)CNC5)c3Cl)c2Cl)nc1OC` [Compound 159, 1-(6-(2-chloro-3-(3-chloro-2-(isoindolin-5-yl)pyridine-4-yl)phenyl)-2-methoxypyridin-3-yl)-N-methylmethanamine], for which inhibition in assay [1] was half-maximal at 1.34 nM (IC50). At human PD-L1, this compound came in with an EC50 not below 10000 nM.

As for `COc1cc(-c2nccc(-c3cccc(-c4ccc5c(OC)c(CNC[C@@H]6CCC(=O)N6)cc(Cl)c5n4)c3Cl)c2Cl)ccc1CNC[C@@H]1CCC(=O)N1` [Compound 207, (S)-5-((((8-chloro-2-(2-chloro-3-(3-chloro-2-(3-methoxy-4-(((((S)-5-oxopyrrolidin-2-yl)methyl)amino)methyl)phenyl)pyridin-4-yl)phenyl)-5-methoxyquinolin-6-yl)methyl)amino)methyl)pyrrolidin-2-one], the IC50 in assay [1] was 7.66 nM. Further, at human PD-L1, the EC50 came out at 118 nM.

The compound `COc1cc(-c2nccc(-c3cccc(-c4ccc(CNC5CCN(C(C)=O)CC5)c(OC)n4)c3Cl)c2Cl)ccc1CN1CC[C@H](C(=O)O)C1` [Example 239, (S)-1-(4-(4-(3-(5-(((1-acetylpiperidin-4-yl)amino)methyl)-6-methoxypyridin-2-yl)-2-chlorophenyl)-3-chloropyridin-2-yl)-2-methoxybenzyl)pyrrolidine-3-carboxylic acid] gave an IC50 in assay [1] of 0.19 nM. On human PD-L1, this compound gave a half-maximal effective concentration (EC50) of 161 nM.
